Data on one compound can be found in patent US5919464A, “Treatment of aberrant cellular states with biomodulators” (University of New Mexico, priority 1993, dated 1999).

The test system of assay [1] is human peripheral blood leukocytes (HPBLs). Put plainly: HPBL 3H-thymidine incorporation (proliferation). Set-up: reference not given here. It is filed as cell-based. From the text: C. […] This model is used to correlate the effects of biomodulators on the expression of immune response in vitro. The plaque assay disclosed in this reference is used for the determination of the effect of biomodulators on the specificity, class and subclass of individual clones.
A. Purification of PWM and separation of the differentiative and proliferative functions Pokeweed Mitogen (PWM) and three of its isomitogens, Pa-1 and Pa-5, which are primarily differentiative in nature, and Pa-2 which is primarily proliferative, were prepared according to the method of Waxdal, supra, except that the iso-mitogens were finally purified by isoelectric focusing.

Assay [2] deals with canine glioma cells. Nature of the assay: cytotoxicity, simple survival (T50%) of canine glioma cells. The format is cell-based. To be noted: Canis lupus familiaris, Glioma cell, read-out: T 50% (50% inhibitory concentration on simple survival). As for the experimental part: (§1) Cytotoxicity was determined as a function of simple survival (T50%), adherence (ADH50%) and thymidine incorporation (I50%) of the cells.
(§2) Estimates of the 50% inhibitory concentrations of the various drugs tested on simple survival (T50%) and adherence (ADH50%) for canine glioma cells.

In assay [3] the test system is canine glioma cells. Put plainly: adherence (ADH50%) of canine glioma cells. The format is cell-based. The conditions noted are these: Canis lupus familiaris, Glioma cell. As for the experimental part:
as §1, §2

The test system of assay [4] is canine glioma cells. Nature of the assay: thymidine incorporation (I50%) of canine glioma cells. It is filed as cell-based. The conditions noted are these: Canis lupus familiaris, Glioma cell. The procedure: as §1
Estimates of the I50% of the various drugs tested on thymidine incorporation of canine glioma cells in culture.
(In general: Incorporation of labelled thymidine or its analogues reports DNA synthesis.)

For assay [5], the system named is canine glioma cells. Put plainly: canine glioma generation times, Compound IIe'. It is filed as cell-based. The procedure:
The cells were harvested every 72 hours after the controls had reached 85% confluency. Generation time (Tg) was determined as the number of: hours required for the cell population to double.
Mean of triplicate determinations. Canine glioma cells were grown under conditions to promote exponential growth characteristics; 2×10^5cells in a T-25 flask. The cells were harvested every 72 hours after the controls had reached approximately 85% confluency. The drug was added at the initiation of culture in DMSO, the control cultures had just DMSO. The drug concentration was adjusted with DMSO so that the final concentration of DMSO was always 0.5%.

The subject of assay [6] is human colon carcinoma cell line (LS-174). Nature of the assay: LS-174 generation times, Compound IIe'. It is filed as cell-based. The procedure: The procedure of Example VA, above, was repeated except a human colon carcinoma cell line (LS-174) was used instead of the canine glioma cell line.
Mean of triplicate determinations. LS-174 cells (human colon carcinoma) were grown under conditions to promote exponential growth characteristics; 2×10^5 cells in a T-25 flask. The cells were harvested every 72 hours after the controls had reached approximately 85% confluency. The drug was added at the initiation of culture in DMSO, the control cultures had just DMSO. The drug concentration was adjusted with DMSO so that the final concentration of DMSO was always 0.5%.

Assay [7] concerns the target T1, HMGCoA reductase (Rattus norvegicus, UniProt P51639).
T1 sequence (P51639 1-887): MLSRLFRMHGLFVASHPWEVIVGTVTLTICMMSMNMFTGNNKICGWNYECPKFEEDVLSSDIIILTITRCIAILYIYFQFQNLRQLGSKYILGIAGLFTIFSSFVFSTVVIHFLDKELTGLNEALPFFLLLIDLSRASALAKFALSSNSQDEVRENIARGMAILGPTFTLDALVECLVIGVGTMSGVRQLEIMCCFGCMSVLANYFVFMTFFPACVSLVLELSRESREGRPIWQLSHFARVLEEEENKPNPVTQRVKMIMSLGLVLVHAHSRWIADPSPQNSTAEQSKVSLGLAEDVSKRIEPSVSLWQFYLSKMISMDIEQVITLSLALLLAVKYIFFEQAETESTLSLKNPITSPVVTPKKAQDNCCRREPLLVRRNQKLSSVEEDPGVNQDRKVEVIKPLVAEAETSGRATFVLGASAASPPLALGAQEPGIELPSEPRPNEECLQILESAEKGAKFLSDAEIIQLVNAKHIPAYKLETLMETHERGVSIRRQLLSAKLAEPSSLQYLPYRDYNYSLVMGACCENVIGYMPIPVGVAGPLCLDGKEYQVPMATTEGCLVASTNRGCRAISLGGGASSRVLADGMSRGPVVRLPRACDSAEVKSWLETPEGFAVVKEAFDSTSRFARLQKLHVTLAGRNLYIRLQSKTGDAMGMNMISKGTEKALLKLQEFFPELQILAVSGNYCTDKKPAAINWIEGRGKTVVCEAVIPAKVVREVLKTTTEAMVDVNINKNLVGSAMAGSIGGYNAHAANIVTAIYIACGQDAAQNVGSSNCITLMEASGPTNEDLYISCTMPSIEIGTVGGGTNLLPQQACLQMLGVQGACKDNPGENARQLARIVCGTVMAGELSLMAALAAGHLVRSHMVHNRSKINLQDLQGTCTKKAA
Put plainly: inhibition of rat liver HMGCoA reductase activity. It is filed as biochemical. Set-up: from tissue; host or cells: rat liver. To be noted: read-out: IC50 HMG-CoA reductase. The text has this:
reductase activity; data obtained according to Example IA.

In assay [8] the target is T1, HMGCoA reductase. Put plainly: HMG-CoA reductase inhibition, ED50. To be noted: HMG-CoA reductase inhibitor. Set-up: from tissue; host or cells: whole animal (in vivo dose in μg/kg). The format is in vivo.

Molecules are shown by their SMILES.

Regarding `CC(C)OC(=O)C[C@H](O)C[C@@H](O)/C=C/c1c(C(C)C)nc(-c2ccccc2)n1-c1ccc(F)cc1` (relative stereo) [Compound IIe'], the “Proliferation ((3H) thymidine incorporation into DNA)” value in assay [1] turned out to be 0.85. Moreover, the IC50 turned out to be 750 nM in assay [2] (24 h); 800 nM in assay [2] (72 h); 900 nM in assay [2] (96 h); 75 nM in assay [3] (24 h); 70 nM in assay [3] (72 h); 75 nM in assay [3] (96 h). The IC50 in assay [4] (24 h, first four lines, read-out: I50% (thymidine incorporation)) turned out to be 50 nM; in assay [4] (48 h, first four lines, read-out: I50% (thymidine incorporation)) it was 75 nM; in assay [4] (48 h, second four lines, read-out: I50% (thymidine incorporation)) it was 75 nM; in assay [4] (72 h, first four lines, read-out: I50% (thymidine incorporation)), 80 nM; in assay [4] (96 h, first four lines, read-out: I50% (thymidine incorporation)) it was 50 nM; in assay [4] (96 h, second four lines, read-out: I50% (thymidine incorporation)), 50 nM. Besides, the IC50 is 50 to 80 nM in assay [4] (text to Table V, read-out: I50% (thymidine incorporation into DNA)); 100 nM in assay [4] (24 h, second four lines, read-out: I50% (thymidine incorporation)); 30 nM in assay [4] (72 h, second four lines, read-out: I50% (thymidine incorporation)); 3 nM in assay [7]. For the same compound, the “% Change of Tg” value in assay [5] (10 nM, 72 × 3 h) came out at 180%. For the same compound, the Tg in assay [5] (10 nM, 72 h, control 18.6) is recorded as 25.3 h; in assay [6] (10 nM, 72 h, control 26.5), 84.9 h. Also, the contact inhibition entry in assay [5] (in words) is “showed evidence of contact inhibition as the cells approached confluency”. In addition, in assay [6] (two passages, in words), the “generation time after drug withdrawal” value is “the generation time returned to control levels”. In assay [8], this compound displayed a 50% effective dose (ED50) of 0.025 mg/kg.

In general, ED50 refers to the dose at which the effect has come halfway, by size or by number of responders.
